The values below come from patent publication US20220356174A1, “PYRIDIN-2-ONE COMPOUNDS USEFUL AS SMARCA2 ANTAGONISTS” (Epizyme, Inc., priority 2018, published 2022).

Molecules are shown by their SMILES.

FL-SMARCA4, sequence (P51532 whole entry): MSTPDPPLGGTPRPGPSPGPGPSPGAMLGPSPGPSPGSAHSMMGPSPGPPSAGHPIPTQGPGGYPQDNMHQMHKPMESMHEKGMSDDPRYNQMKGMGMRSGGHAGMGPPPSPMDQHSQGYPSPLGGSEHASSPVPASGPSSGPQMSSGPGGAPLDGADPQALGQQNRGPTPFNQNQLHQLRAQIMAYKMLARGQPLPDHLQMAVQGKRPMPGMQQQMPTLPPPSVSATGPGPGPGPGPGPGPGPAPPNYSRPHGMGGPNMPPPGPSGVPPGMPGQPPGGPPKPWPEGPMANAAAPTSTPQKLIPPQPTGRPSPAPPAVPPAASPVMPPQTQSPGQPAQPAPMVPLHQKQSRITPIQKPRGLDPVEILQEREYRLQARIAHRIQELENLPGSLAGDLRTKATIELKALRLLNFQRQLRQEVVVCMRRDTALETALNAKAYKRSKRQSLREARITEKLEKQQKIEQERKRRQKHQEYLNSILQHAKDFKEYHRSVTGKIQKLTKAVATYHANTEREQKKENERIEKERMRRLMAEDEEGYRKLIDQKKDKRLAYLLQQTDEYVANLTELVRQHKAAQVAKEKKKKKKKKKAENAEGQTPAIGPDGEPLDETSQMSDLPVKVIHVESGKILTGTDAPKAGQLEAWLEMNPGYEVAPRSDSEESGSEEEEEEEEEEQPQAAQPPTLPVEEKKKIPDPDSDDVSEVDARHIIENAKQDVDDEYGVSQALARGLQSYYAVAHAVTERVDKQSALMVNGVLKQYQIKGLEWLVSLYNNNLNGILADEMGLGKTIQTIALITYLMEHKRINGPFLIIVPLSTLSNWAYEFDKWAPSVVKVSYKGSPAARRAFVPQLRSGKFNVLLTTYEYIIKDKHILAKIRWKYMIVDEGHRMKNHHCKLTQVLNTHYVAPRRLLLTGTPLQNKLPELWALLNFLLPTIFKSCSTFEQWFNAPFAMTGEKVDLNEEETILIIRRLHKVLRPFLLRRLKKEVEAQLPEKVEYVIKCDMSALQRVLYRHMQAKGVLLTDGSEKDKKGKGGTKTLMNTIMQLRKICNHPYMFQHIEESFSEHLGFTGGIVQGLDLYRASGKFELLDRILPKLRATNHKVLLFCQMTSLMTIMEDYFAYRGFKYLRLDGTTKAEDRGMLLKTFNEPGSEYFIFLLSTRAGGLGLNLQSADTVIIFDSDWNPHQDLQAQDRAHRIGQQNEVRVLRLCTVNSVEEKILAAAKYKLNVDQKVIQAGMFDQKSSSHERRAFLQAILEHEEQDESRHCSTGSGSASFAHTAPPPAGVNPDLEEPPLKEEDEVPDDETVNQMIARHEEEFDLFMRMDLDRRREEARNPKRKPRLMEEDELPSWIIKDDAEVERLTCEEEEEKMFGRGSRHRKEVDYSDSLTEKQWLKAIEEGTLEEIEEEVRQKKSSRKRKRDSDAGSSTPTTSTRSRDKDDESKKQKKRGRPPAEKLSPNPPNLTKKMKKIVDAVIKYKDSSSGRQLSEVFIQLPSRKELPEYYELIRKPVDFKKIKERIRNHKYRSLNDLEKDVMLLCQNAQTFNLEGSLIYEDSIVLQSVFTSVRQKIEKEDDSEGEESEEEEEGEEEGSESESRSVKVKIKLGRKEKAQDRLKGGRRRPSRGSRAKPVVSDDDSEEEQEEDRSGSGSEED

The target in one assay is T1, FL-SMARCA2 (full-length human SMARCA2 isoform 1) (Homo sapiens, UniProt P51531).
T1 construct: FLAG tag (YKDDDDK) (C); made in house; host or cells: Sf21 insect cells (baculovirus, pFastBacI)
T1 sequence (P51531 with tags, fused parts or gaps): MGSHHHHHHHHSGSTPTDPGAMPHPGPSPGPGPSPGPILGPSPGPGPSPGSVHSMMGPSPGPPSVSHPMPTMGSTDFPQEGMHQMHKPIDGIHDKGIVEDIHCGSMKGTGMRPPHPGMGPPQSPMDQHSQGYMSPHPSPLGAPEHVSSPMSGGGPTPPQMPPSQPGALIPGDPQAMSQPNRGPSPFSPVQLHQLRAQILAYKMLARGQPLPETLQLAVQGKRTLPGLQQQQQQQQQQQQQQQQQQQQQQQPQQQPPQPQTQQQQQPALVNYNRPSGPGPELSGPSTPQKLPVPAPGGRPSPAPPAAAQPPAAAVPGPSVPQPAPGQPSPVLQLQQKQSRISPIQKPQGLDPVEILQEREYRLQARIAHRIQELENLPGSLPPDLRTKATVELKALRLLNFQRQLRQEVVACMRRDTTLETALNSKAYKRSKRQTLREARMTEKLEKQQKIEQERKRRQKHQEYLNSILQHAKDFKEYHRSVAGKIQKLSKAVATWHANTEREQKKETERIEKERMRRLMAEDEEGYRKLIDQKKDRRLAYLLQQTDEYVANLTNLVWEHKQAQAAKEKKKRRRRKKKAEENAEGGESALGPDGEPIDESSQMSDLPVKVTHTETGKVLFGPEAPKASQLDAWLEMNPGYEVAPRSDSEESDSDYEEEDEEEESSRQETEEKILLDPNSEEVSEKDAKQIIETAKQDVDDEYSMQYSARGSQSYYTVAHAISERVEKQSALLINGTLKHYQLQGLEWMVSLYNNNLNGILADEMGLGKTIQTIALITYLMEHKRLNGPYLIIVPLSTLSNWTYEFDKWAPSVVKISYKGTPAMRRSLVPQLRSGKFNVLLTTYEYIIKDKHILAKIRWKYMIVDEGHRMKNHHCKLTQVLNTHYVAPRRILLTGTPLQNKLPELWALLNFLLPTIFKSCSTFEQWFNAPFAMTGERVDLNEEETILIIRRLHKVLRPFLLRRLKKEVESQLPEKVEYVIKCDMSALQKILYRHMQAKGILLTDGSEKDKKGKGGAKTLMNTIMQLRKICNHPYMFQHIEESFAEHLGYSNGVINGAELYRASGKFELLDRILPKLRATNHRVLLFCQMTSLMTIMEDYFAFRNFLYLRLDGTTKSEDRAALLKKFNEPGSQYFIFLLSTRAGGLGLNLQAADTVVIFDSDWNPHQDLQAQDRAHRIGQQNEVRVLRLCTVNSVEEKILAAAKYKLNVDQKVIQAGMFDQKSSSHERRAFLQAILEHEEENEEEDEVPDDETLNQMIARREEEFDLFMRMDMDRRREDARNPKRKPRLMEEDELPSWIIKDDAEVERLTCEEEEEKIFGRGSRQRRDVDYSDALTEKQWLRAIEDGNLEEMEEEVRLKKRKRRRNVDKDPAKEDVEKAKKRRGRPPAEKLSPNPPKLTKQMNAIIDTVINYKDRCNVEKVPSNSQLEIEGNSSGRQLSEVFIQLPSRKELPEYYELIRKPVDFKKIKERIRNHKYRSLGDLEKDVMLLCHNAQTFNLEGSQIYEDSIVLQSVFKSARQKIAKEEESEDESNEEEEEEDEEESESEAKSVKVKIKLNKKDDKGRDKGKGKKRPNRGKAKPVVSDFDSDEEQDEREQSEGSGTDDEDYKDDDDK
Kind of assay: SMARCA2 ATPase activity assay (ADP-Glo, chicken mononucleosome substrate). The assay is classed as biochemical. As to conditions: Table 3a.1; SMARCA2 5 nM, ATP 250 uM, mononucleosome 10 nM. (In general: ADP-Glo turns the ADP formed in a reaction into a luminescent signal.)
On to `O=C(Nc1ccc(=O)n(Cc2ccccc2Cl)c1)C1COCCN1` (centres unmarked) [Compound 6a], for which the concentration for half-maximal inhibition (IC50) – broadly, the midpoint of a concentration-inhibition curve – was over 50 µM.
Consider `CCC(CC)N1CC(C(=O)Nc2cc(Cl)c(=O)n(C)c2)CC1=O` (centres unmarked) [Compound 12a], for which the IC50 is over 50 µM.
On the same count and under the same terms, for `CCn1cc(NC(=O)c2ccc3c(n2)OCO3)ccc1=O` [Compound 37a] the value was over 50 µM.
Take `O=C(Nc1cc(F)c(=O)n(CCF)c1)c1ncccn1` [Compound 55a]: the concentration for half-maximal inhibition (IC50) was over 50 µM.
In the case of `CCn1cc(NC(=O)c2cn(C)c3c(Cl)cccc23)ccc1=O` [Compound 27a], the IC50 was over 50 µM.
Same read-out and setting: for `CCn1cc(NC(=O)[C@@H]2C[C@H](OC)CN2C)ccc1=O` [Compound 3a] the value was over 50 µM.
Still for that read-out and setting: for `O=C(Nc1cc(F)c(=O)n(CCF)c1)N1CCC(Cl)=C(Cl)C1` [Compound 60a] the value was 14.3 µM; for `CCn1cc(NC(=O)c2cnc(Cl)c(Cl)c2)ccc1=O` [Compound 16a], 26.8 µM.
Still for that read-out and setting: the result for `CCn1cc(NC(=O)c2cn3cc(Cl)c(F)cc3n2)ccc1=O` [Compound 45a] reads over 50 µM.

Staying with this assay, now noted: Table 3b.1; SMARCA2 5 nM, ATP 250 uM, mononucleosome 10 nM.
With `O=C(Nc1cc(F)c(=O)n(CCF)c1)c1ccc(Cl)c(Cl)c1` [Compound 17b], the IC50 worked out at 0.645 µM.
Same read-out and setting: for `Cc1c(Cl)cccc1C(=O)Nc1c[nH]c(=O)c(C)c1` [Compound 2b] the value was over 50 µM.

The assay is the same for the next values; noted with them: Table 3c.1; ATPase assay, enzyme 5 nM, ATP 250 uM, chicken mononucleosome 10 nM, 30 min preincubation.
In turn, `CN(C)CCCc1cc(NC(=O)c2cc(F)c(Cl)s2)cn(CC(F)F)c1=O` [Compound 7c] showed an IC50 of over 50 µM.
As for `Cn1cc(-c2cc(NC(=O)c3cc(Cl)c(C(F)(F)F)s3)cn(CC(F)F)c2=O)cn1` [Compound 14c], the IC50 is over 50 µM.
In turn, `O=C(Nc1cc(F)c(=O)n(CC(F)F)c1)c1cc(C#Cc2ccncc2)n[nH]1` [Compound 112c] gave an IC50 of over 50 µM.
With `O=C(Nc1cc(F)c(=O)n(CC(F)F)c1)c1cc(N2CCN(c3ccncc3)CC2)c(Cl)s1` [Compound 119c], the IC50 was determined as 6.17 µM.
The same measure, in the same setting: the result for `O=C(Nc1cc(F)c(=O)n(CC(F)F)c1)c1nsc(Cl)n1` [Compound 76c] reads 24.1 µM.
On the same count and under the same terms, the result for `CNCCCn1cc(NC(=O)c2cc(F)c(Cl)s2)cc(F)c1=O` [Compound 53c] reads over 50 µM; that for `O=C(Nc1cc(F)c(=O)n(CC(F)F)c1)c1cc(C#Cc2ccncc2)c(F)s1` [Compound 106c], 0.028 µM.

Still in this assay, the particulars now being: Table 3.1; ATPase assay, enzyme 5 nM, ATP 250 uM, chicken mononucleosome 10 nM, 30 min preincubation.
Turning to `Cn1c(C(=O)Nc2cc(C#N)c(=O)n(CC(F)(F)F)c2)cnc1Cl` [Compound 214], half-maximal inhibition (IC50) required 29.9 µM. This lies in the double-digit micromolar range.
On the same count and under the same terms, for `N#Cc1cc(C(=O)Nc2cc(F)c(=O)n(CCF)c2)oc1C#N` [Compound 246] the value was 1.35 µM.
For the molecule `CNC(=O)c1cc(C(=O)Nc2cc(F)c(=O)n(CCF)c2)sc1C(F)(F)F` [Compound 305], the IC50 was over 50 µM.
Still for that read-out and setting: for `CCn1cc(NC(=O)c2cc(C#CCO)c(Cl)s2)ccc1=O` [Compound 300] the value was 2.74 µM; for `CCn1cc(NC(=O)c2cnc(Cl)s2)ccc1=O` [Compound 69], 2.52 µM; for `NC(=O)c1ncc(C(=O)Nc2cc(F)c(=O)n(CCF)c2)s1` [Compound 226], over 50 µM.
Same read-out and setting: for `O=C(Nc1ccc(=O)n(CC(F)(F)F)c1)c1cc(Cl)c(Cl)[nH]1` [Compound 166] the value was 2.72 µM; for `Cn1c(C(=O)Nc2cc(F)c(=O)n(CCF)c2)cnc1Cl` [Compound 205], 3.49 µM; for `O=C(Nc1cc(F)c(=O)n(CC(F)F)c1)c1cc(-c2nnco2)c(Cl)s1` [Compound 318], 2.88 µM.
The molecule `CCn1cc(NC(=O)c2cc(C#N)[nH]n2)ccc1=O` [Compound 175] yielded an IC50 of 2.04 µM.

A further assay concerns the target FL-SMARCA4 (Homo sapiens, UniProt P51532). Kind of assay: SMARCA4 ATPase activity assay (ADP-Glo, chicken mononucleosome substrate). As to conditions: FL-SMARCA4 IC50, Table 3a.2; SMARCA4 5 nM, ATP 250 uM, mononucleosome 10 nM.
Turning to `O=C(Nc1ccc(=O)n(Cc2ccccc2Cl)c1)C1COCCN1` (centres unmarked) [Compound 6a], the IC50 is over 50 µM.
Same read-out and setting: the result for `CCC(CC)N1CC(C(=O)Nc2cc(Cl)c(=O)n(C)c2)CC1=O` (centres unmarked) [Compound 12a] reads over 50 µM; that for `CCn1cc(NC(=O)c2ccc3c(n2)OCO3)ccc1=O` [Compound 37a], over 50 µM; that for `O=C(Nc1cc(F)c(=O)n(CCF)c1)c1ncccn1` [Compound 55a], over 50 µM.
On the same count and under the same terms, the result for `CCn1cc(NC(=O)c2cn(C)c3c(Cl)cccc23)ccc1=O` [Compound 27a] reads over 50 µM; that for `CCn1cc(NC(=O)[C@@H]2C[C@H](OC)CN2C)ccc1=O` [Compound 3a], over 50 µM.
Still for that read-out and setting: for `O=C(Nc1cc(F)c(=O)n(CCF)c1)N1CCC(Cl)=C(Cl)C1` [Compound 60a] the value was 46.7 µM; for `CCn1cc(NC(=O)c2cnc(Cl)c(Cl)c2)ccc1=O` [Compound 16a], over 50 µM.
On to `CCn1cc(NC(=O)c2cn3cc(Cl)c(F)cc3n2)ccc1=O` [Compound 45a], for which the IC50 is over 50 µM.

The assay is the same for the next values; noted with them: FL-SMARCA4 IC50, Table 3b.2; SMARCA4 5 nM, ATP 250 uM, mononucleosome 10 nM.
Molecule `O=C(Nc1cc(F)c(=O)n(CCF)c1)c1ccc(Cl)c(Cl)c1` [Compound 17b] registered a half-inhibitory concentration (IC50) of 4.78 µM.
Same read-out and setting: for `Cc1c(Cl)cccc1C(=O)Nc1c[nH]c(=O)c(C)c1` [Compound 2b] the value was over 50 µM.

The assay is the same for the next values; noted with them: FL-SMARCA4 IC50, Table 3.2; ATPase assay, enzyme 5 nM, ATP 250 uM, chicken mononucleosome 10 nM, 30 min preincubation.
Take `Cn1c(C(=O)Nc2cc(C#N)c(=O)n(CC(F)(F)F)c2)cnc1Cl` [Compound 214]: the IC50 is over 50 µM.
Same read-out and setting: for `N#Cc1cc(C(=O)Nc2cc(F)c(=O)n(CCF)c2)oc1C#N` [Compound 246] the value was 6.37 µM; for `CNC(=O)c1cc(C(=O)Nc2cc(F)c(=O)n(CCF)c2)sc1C(F)(F)F` [Compound 305], over 50 µM; for `CCn1cc(NC(=O)c2cc(C#CCO)c(Cl)s2)ccc1=O` [Compound 300], 5.96 µM.
On the same count and under the same terms, the result for `CCn1cc(NC(=O)c2cnc(Cl)s2)ccc1=O` [Compound 69] reads 11.7 µM; that for `NC(=O)c1ncc(C(=O)Nc2cc(F)c(=O)n(CCF)c2)s1` [Compound 226], over 50 µM; that for `O=C(Nc1ccc(=O)n(CC(F)(F)F)c1)c1cc(Cl)c(Cl)[nH]1` [Compound 166], 16.6 µM.
Same read-out and setting: the result for `Cn1c(C(=O)Nc2cc(F)c(=O)n(CCF)c2)cnc1Cl` [Compound 205] reads 22.6 µM; that for `O=C(Nc1cc(F)c(=O)n(CC(F)F)c1)c1cc(-c2nnco2)c(Cl)s1` [Compound 318], 13.5 µM.
`CCn1cc(NC(=O)c2cc(C#N)[nH]n2)ccc1=O` [Compound 175]: the IC50 is 5.6 µM.

Staying with this assay, now noted: FL-SMARCA4 IC>50, Table 3c.2; ATPase assay, enzyme 5 nM, ATP 250 uM, chicken mononucleosome 10 nM, 30 min preincubation.
As to `CN(C)CCCc1cc(NC(=O)c2cc(F)c(Cl)s2)cn(CC(F)F)c1=O` [Compound 7c], the IC50 was over 50 µM.
The molecule `Cn1cc(-c2cc(NC(=O)c3cc(Cl)c(C(F)(F)F)s3)cn(CC(F)F)c2=O)cn1` [Compound 14c] showed an IC50 of over 50 µM.
On to `O=C(Nc1cc(F)c(=O)n(CC(F)F)c1)c1cc(C#Cc2ccncc2)n[nH]1` [Compound 112c], for which the IC50 was over 50 µM.
Still for that read-out and setting: for `O=C(Nc1cc(F)c(=O)n(CC(F)F)c1)c1cc(N2CCN(c3ccncc3)CC2)c(Cl)s1` [Compound 119c] the value was 16.1 µM; for `O=C(Nc1cc(F)c(=O)n(CC(F)F)c1)c1nsc(Cl)n1` [Compound 76c], over 50 µM.
Molecule `CNCCCn1cc(NC(=O)c2cc(F)c(Cl)s2)cc(F)c1=O` [Compound 53c] returned an IC50 of over 50 µM.
For `O=C(Nc1cc(F)c(=O)n(CC(F)F)c1)c1cc(C#Cc2ccncc2)c(F)s1` [Compound 106c], the IC50 came out at 0.0533 µM.
